For assay [1], the system named is Mycobacterium tuberculosis. As to the kind of experiment: Antitubercular activity against multi drug resistant Mycobacterium tuberculosis isolate 2 assessed as growth inhibition after 4 weeks. The class given is functional. Particulars: isolate 2, 672 h.
Assay [2] has as its system Mycobacterium tuberculosis. As to the kind of experiment: Antitubercular activity against multi drug resistant Mycobacterium tuberculosis isolate 1 assessed as growth inhibition after 4 weeks. The class given is functional. The note with it: isolate 1, 672 h.

≈ marks a conversion by molar mass, not a printed value.

Take `COc1nc2ccccc2cc1C(c1cc2ccccc2nc1OC)C(O)(CCN(C)C)c1ccc2ccccc2c1` (stereo not drawn): the MIC in assay [1] and in assay [2] was 3.12 µM (≈ 1.74 µg/mL) in each case.

On to `C=CCCOc1nc2ccccc2cc1C(c1cc2ccccc2nc1OCCC=C)C(O)(CCN(C)C)c1ccc(Br)cc1` (stereo not drawn), for which the MIC in assay [1] and in assay [2] was 3.12 µM (≈ 2.08 µg/mL) throughout.

As to `COc1nc2ccccc2cc1C(c1cc2ccccc2nc1OC)C(O)(CCN(C)C)c1ccccc1` (stereo not drawn), the MIC in assay [1] and in assay [2] was 3.12 µM (≈ 1.58 µg/mL) in each case.

For `COc1nc2ccccc2cc1C(c1cc2ccccc2nc1OC)C(O)(CCN(C)C)c1cccc(Br)c1` (stereo not drawn), the MIC in assay [1] and in assay [2] was 3.12 µM (≈ 1.83 µg/mL) in each case.

One may read the MIC as the least concentration at which growth counts as inhibited.

For the origin of these results see ChEMBL document CHEMBL3751774, “Synthesis and anti-tubercular activity of conformationally-constrained and bisquinoline analogs of TMC207” (Medchemcomm, 2015).
